The text below walks through data of ChEMBL document CHEMBL5500412, “Discovery of Highly Selective, Potent, Covalent, and Orally Bioavailable Factor XIIa Inhibitors for the Treatment of Thrombo-Inflammation” (J Med Chem, 2024).

As usually defined, the Ki is the equilibrium dissociation constant of an inhibitor or competing ligand from its target. The bioavailability is dose-corrected exposure relative to a reference, in per cent.

Structures are written as SMILES. Activity calls are given as the source filed them. No cut-off for these calls is given here.

Data set [1] has as its target T1, Coagulation factor XII (Homo sapiens) (UniProt P00748).
T1 sequence (whole entry): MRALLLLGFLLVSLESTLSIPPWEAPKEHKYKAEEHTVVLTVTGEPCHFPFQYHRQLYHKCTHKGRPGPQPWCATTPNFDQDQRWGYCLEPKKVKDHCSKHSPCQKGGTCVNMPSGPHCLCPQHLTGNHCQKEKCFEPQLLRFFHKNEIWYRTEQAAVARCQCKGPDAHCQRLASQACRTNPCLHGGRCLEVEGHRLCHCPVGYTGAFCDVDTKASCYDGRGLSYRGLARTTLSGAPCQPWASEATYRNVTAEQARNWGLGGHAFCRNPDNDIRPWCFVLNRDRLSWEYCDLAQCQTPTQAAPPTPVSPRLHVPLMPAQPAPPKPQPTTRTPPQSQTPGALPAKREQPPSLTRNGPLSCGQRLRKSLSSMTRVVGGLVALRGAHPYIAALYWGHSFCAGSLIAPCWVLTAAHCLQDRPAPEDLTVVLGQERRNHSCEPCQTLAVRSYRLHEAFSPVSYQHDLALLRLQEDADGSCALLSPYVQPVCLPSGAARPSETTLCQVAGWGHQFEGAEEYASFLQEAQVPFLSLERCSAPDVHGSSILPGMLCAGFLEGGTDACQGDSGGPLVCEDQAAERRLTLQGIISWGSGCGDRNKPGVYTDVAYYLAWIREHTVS
Nature of the data set: Covalent inhibition of FXIIa (unknown origin) at 20 to 40 nM measured after 10 mins. The note with it: dose 20-40 nM.

Data set [2] can be described thus: Clearance in BALB/c mouse at 1 mg/kg, iv measured upto 24 hrs by LC-MS/MS analysis. The note with it: in vivo. The data set is classed as ADME, organism-based.
Data set [3] is described as follows: Toxicity in BALB/c mouse assessed as prolongation of bleeding time at 60 mg/kg, po measured after 90 mins. The class given is organism-based. The note with it: in vivo, 1.5 h.
The target of a further data set is T2, Coagulation factor XII (Homo sapiens, UniProt P00748).
T2 sequence (P00748 whole entry): T1 sequence (whole entry)
Nature of the data set: Binding affinity to FXIIa (unknown origin) assessed as inhibition constant using H-D-Pro-Phe-Arg-pNA.2HCl as substrate by spectrophotometric analysis.

Data set [4] is described as follows: Toxicity in BALB/c mouse assessed as effect on ALT level in serum at 60 to 100 mg/kg, po measured after 14 days. The data set is classed as organism-based. The note with it: in vivo, 336 h, dose 60-100 mg/kg, time 14 day.
A short description of data set [5]: Toxicity in BALB/c mouse assessed as effect on UA level in serum at 60 to 100 mg/kg, po measured after 14 days. As to conditions: in vivo, 336 h, dose 60-100 mg/kg, time 14 day. The data set is classed as organism-based.
A short description of data set [6]: Toxicity in BALB/c mouse assessed as effect on AST level in serum at 60 to 100 mg/kg, po measured after 14 days. The data set is classed as organism-based. As to conditions: in vivo, 336 h, dose 60-100 mg/kg, time 14 day.
Data set [7] in a line: Apparent volume of distribution in BALB/c mouse at 1 mg/kg, iv measured upto 24 hrs by LC-MS/MS analysis. The data set is classed as ADME, organism-based. As to conditions: in vivo, read-out: Vz.
Data set [8] can be described thus: Oral bioavailability in BALB/c mouse at 5 mg/kg measured upto 24 hrs by LC-MS/MS analysis. The data set is classed as ADME, organism-based. The note with it: in vivo.

On to `CC(C)N1CCCN(c2ccc(C(=O)n3nc(-c4ccccn4)nc3N)c3ccccc23)CC1`, for which the inhibition result in [1] is “Active”. The molecule also displayed a CL in [2] of 1270 mL/min/kg. The Activity result in [3], in [4], in data set [5] and in [6] was “Non-Toxic” throughout. Moreover, the Ki at Coagulation factor XII was 11.4 nM. Besides, in [7], the Vd was 105 L/kg. Besides, in data set [8], the bioavailability was found to be 28.2%.
